# Source: patent US20250114430A1, “MODIFIED PEPTIDOMIMETICS AND METHODS OF USE” (The University of North Carolina at Chapel Hill, priority 2021, published 2025)
# Non-standard residues stand in square brackets, D forms with d. No end group written: not given here.
# Key:
# P. aeruginosa [1] = test: P. aeruginosa infection in WT mice, ELD607 versus comparators; assay type: in vivo; details: WT mice infected with P. aeruginosa
# Text: We then infected WT mice with P. aeruginosa and treated with ELD607, the Orai1 small molecule antagonist […], dexamethasone or scrambled ELD607.
# P. aeruginosa [2] = test: P. aeruginosa growth in the presence of peptide; assay type: cell-based; details: in vitro
# [3] = target: T1, human neutrophil elastase (Homo sapiens, UniProt P08246); assay type: in vitro ADME
# T1 sequence (P08246 30-267): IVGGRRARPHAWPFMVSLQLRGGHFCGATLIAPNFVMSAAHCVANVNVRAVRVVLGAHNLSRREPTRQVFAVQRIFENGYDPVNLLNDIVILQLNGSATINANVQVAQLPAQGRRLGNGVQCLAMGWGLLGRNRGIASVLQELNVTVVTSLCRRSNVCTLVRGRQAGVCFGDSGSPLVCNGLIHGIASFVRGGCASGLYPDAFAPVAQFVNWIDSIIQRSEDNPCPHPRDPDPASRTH
# Experimental: Peptides were exposed to NE over time, and the reaction was stopped by addition of sivelestat. HPLC was then performed in order to determine peptide stability. N=3-4 replicates per time point.
# HEK293T cells were plated and incubated for 2 hours with Fluo-4 plus or minus ELD peptides, with fluorescent images taken every 30 seconds for 2-6 minutes at excitation/emission wavelengths of 488/530 nm. […] Candidate peptides ELD604, 607, 601, and 100 were tested for resistance against protease degradation, wherein the peptides were incubated with neutrophil elastase, treated with the elastase inhibitor sivelestat at various timepoints to halt ongoing reactions, and then analyzed by HPLC (FIG. 9).
# Endogenous Orai1/store operated Ca^2+ influx have been extensively studied in HEK293T cells, so this cell type was used to understand ELD607-Orai1 interactions. […] Thapsigargin is a SERCA pump inhibitor that prevents uptake of cytosolic Ca^2+ into the endoplasmic reticulum. Thapsigargin is commonly used to stimulate Orai1/store operated Ca^2+ influx. […] Dynamic light scattering (DLS) was used to evaluate binding of ELD607 to peptides of Orai1 extracellular loops. […] Thus, it was concluded that ELD607 interacts with Orai1.
# Orai1 = Orai1 (Homo sapiens, UniProt Q96D31); test: Dose response of Ca^2+ influx (SOCE), Ca^2+ add back approach, HEK293T cells; assay type: cell-based; parameters: Endogenous Orai1/store operated Ca^2+ influx have been extensively studied in HEK293T cells; endogenous in cells; host or cells: HEK293T
# Chain of Orai1 (Q96D31 whole entry): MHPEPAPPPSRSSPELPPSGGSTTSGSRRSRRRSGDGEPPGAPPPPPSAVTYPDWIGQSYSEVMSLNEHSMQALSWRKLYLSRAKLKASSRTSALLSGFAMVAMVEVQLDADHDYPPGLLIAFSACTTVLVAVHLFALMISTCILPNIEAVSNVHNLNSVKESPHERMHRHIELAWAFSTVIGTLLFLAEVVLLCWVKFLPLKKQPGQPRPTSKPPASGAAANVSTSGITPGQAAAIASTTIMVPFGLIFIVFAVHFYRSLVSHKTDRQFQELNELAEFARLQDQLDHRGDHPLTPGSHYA
# Experimental: HEK293T cells were cultured in 384 well plates. Cells were then exposed to vehicle or […] ELD607 for 1 h. 100 nM thapsigargin was then added followed by extracellular Ca^2+ to differentiate ER Ca^2+ release and SOCE. n=8-12 cultures per data point.
# ELD607 requires Orai1 expression to inhibit Ca^2+ signaling. […] Using this approach, curves were fitted to the data and the 50% inhibitory concentrations (IC50S) were calculated.
# HEK293T cells = test: Cytoplasmic Ca^2+ (Fluo-4) in HEK293T cells incubated with ELD peptides; assay type: cell-based; details: 2 hours with Fluo-4 plus or minus peptide
# [4] = tested on: SARS-CoV-2 S1 pseudovirus; assay type: cell-based
compound,measurement,setting,value
"Cc1nnsc1C(=O)Nc1ccc(-n2nc(C(F)(F)F)cc2C(F)(F)F)cc1 [YM-58453, reference compound]","neutrophilia, weight loss, bacterial infections and lung macrophage levels (these parameters)",P. aeruginosa [1],"neither −58453, dexamethasone nor scrambled ELD607 had any significant effects"
"O=C(O)c1cn(C2CC2)c2cc(N3CCNCC3)c(F)cc2c1=O [ciproflaxin, reference compound]",P. aeruginosa growth,P. aeruginosa [2],fully inhibited bacterial growth
"DITLVHDIVNMLIHGL [ELD100, DITLVHDIVNMLIHGL]",stability against neutrophil elastase,[3],not neutrophil elastase resistant
same,IC50,"Orai1; Ca^2+ influx, HEK293T, 100 nM thapsigargin, read-out: IC50 (Molar)",37 nM
same,Bottom (%),"Orai1; fitted curve bottom, text: maximal inhibitions",57.03%
"HDINMLIHG [ELD601, HDINMLIHG]",stability against neutrophil elastase,[3],still degraded by elastase
a-HDIVNMLIH-a ([dA]HDIVNMLIH[dA]) [ELD604],cytoplasmic calcium levels as compared to a control scrambled peptide,HEK293T cells,reduced cytoplasmic calcium levels
same,stability against neutrophil elastase,[3],significantly more stable
same,pseudovirus infection (% DsRed-positive cells),[4],inhibited viral replication
n-VHDIVNMLIHG-n (VHDIVNMLIHG-NH2; not fully specified; also: N-terminal amidation) [ELD621],cytoplasmic calcium levels as compared to a control scrambled peptide,HEK293T cells,reduced cytoplasmic calcium levels
same,pseudovirus infection (% DsRed-positive cells),[4],inhibited viral replication
